Source: US20240139113A1, “LIPID NANOPARTICLE WITH TARGET INTEGRIN FUNCTION AND USES THEREOF” (priority 2022, published 2024)

Tests used:
[1] = tested on: human umbilical vein endothelial cells (HUVEC); test: Cell viability of normal cells (HUVEC), 3-day treatment; assay type: cell-based; conditions: 3 days, FIG. 2A
Description: (§1) In this example, the effect of the lipid nanoparticle on the growth of normal cells is investigated.
(§2) Dox represents doxorubicin; Tetrac represents tetraiodothyroacetic acid.

[2] = tested on: monkey kidney epithelial cells (Vero); test: Cell viability of normal cells (Vero), 3-day treatment; assay type: cell-based; conditions: 3 days, FIG. 2A
Description: as §1, §2

## O=C(O)Cc1cc(I)c(Oc2cc(I)c(O)c(I)c2)c(I)c1 [Tetrac, tetraiodothyroacetic acid]
[1]
  cell viability / growth of normal cells: do not affect the growth of normal cells
[2]
  cell viability / growth of normal cells: do not affect the growth of normal cells
